Values of other authors, collected in patent publication US20060269583A1, “Process and composition for treating wood” (priority 2005, published 2006).

Settings: in about 10 years under a given set of field conditions

copper removed by leaching: ≤ 80%
Substance: copper amine carbonate complex
